Here are results for 9 molecules from patent US10336762B2 (priority 2017, dated 2019).

In one assay the target is IRAK4 enzyme (Homo sapiens (Human), UniProt Q9NWZ3). Nature of the assay: biochemical. The following applies: IRAK4 enzyme, TR-FRET, 500 μM ATP. Format: biochemical. For orientation: TR-FRET usually uses a lanthanide donor and a delayed reading to cut background.
For the next assay, the system named is TNFα. Put plainly: cells. Format: cell-based, human. The following applies: Homo sapiens, Monocyte, LPS-stimulated human monocytes, TNFα by TR-FRET; read-out: EC50 TNF.

Structures are written as SMILES.

Sequence of IRAK4 enzyme (Q9NWZ3 whole entry): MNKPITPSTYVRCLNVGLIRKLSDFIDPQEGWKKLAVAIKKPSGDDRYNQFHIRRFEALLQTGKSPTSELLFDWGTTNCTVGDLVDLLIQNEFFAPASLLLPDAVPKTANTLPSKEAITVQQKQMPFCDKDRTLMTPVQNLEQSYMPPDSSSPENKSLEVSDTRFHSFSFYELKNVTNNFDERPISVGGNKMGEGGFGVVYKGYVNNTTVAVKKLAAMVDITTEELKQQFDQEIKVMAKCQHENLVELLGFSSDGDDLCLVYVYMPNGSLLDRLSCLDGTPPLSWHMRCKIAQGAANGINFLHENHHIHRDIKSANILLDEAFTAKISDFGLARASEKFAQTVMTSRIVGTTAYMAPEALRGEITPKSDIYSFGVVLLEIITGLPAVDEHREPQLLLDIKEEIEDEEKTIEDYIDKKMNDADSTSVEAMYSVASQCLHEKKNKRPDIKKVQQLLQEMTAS

Regarding `CNC(=O)[C@H](F)CNC(=O)c1cnc(-c2ccc3cc(C#N)cnn23)cc1NC12CCC(O)(CC1)CC2` [Example 945, (R)-6-(3-cyanopyrrolo[1,2-b]pyridazin-7-yl)-N-(2-fluoro-3-(methylamino)-3-oxopropyl)-4-((4-hydroxybicyclo[2.2.2]octan-1-yl)amino) nicotinamide], on IRAK4 enzyme, the IC50 (in general, the concentration that inhibits the measured activity by half) was 1 nM. Moreover, the concentration for a half-maximal effect (EC50) (usually the concentration needed to bring the measured effect to its halfway point) in the assay with TNFα was determined as 116 nM.

The molecule `CN(C)C(=O)[C@H](F)CNC(=O)c1cnc(-c2ccc3cc(C#N)cnn23)cc1NC12CCC(O)(CC1)CC2` [Example 946, (R)-6-(3-cyanopyrrolo[1,2-b]pyridazin-7-yl)-N-(3-(dimethylamino)-2-fluoro-3-oxopropyl)-4-((4-hydroxybicyclo[2.2.2]octan-1-yl)amino) nicotinamide] displayed a 50% inhibitory concentration (IC50) on IRAK4 enzyme of 1 nM. The half-maximal effective concentration (EC50) in the assay on TNFα was 120 nM.

At IRAK4 enzyme, `N#Cc1cnn2c(-c3cc(NC45CCC(O)(CC4)CC5)c(C(=O)NC[C@@H](F)C(=O)N4CC(F)(F)C4)cn3)ccc2c1` [Example 947, (R)-6-(3-cyanopyrrolo[1,2-b]pyridazin-7-yl)-N-(3-(3,3-difluoroazetidin-1-yl)-2-fluoro-3-oxopropyl)-4-((4-hydroxybicyclo[2.2.2]octan-1-yl)amino) nicotinamide] had a half-maximal inhibitory concentration (IC50) of under 1 nM. For the same molecule, the EC50 in the assay on TNFα came out at 207 nM.

For `CN1CCN(C(=O)[C@H](F)CNC(=O)c2cnc(-c3ccc4cc(C#N)cnn34)cc2NC23CCC(O)(CC2)CC3)CC1` [Example 948, (R)-6-(3-cyanopyrrolo[1,2-b]pyridazin-7-yl)-N-(2-fluoro-3-(4-methylpiperazin-1-yl)-3-oxopropyl)-4-((4-hydroxybicyclo[2.2.2]octan-1-yl)amino) nicotinamide], it took 3 nM to reach half-maximal inhibition against IRAK4 enzyme (IC50). Further, the half-maximal effective concentration (EC50) with TNFα was found to be 282 nM.

On to `COC(=O)C1(NC(=O)c2cnc(-c3ccc4cc(C#N)cnn34)cc2NC23CCC(O)(CC2)CC3)CC1` [Example 949, methyl 1-(6-(3-cyano-pyrrolo[1,2-b]pyridazin-7-yl)-4-((4-hydroxy-bicyclo[2.2.2]octan-1-yl)amino)nicotinamido) cyclopropane-1-carboxylate], for which the IC50 against IRAK4 enzyme worked out at 1 nM. Further, the EC50 with TNFα worked out at 62 nM.

At IRAK4 enzyme, `CC1(NC(=O)c2cnc(-c3ccc4cc(C#N)cnn34)cc2NC23CCC(O)(CC2)CC3)CC1` [Example 950, 6-(3-cyanopyrrolo[1,2-b]pyridazin-7-yl)-4-((4-hydroxybicyclo[2.2.2]octan-1-yl)amino)-N-(1-methylcyclopropyl) nicotinamide] yielded an IC50 of 1 nM. Moreover, the EC50 in the assay on TNFα was 70 nM.

The molecule `N#Cc1cnn2c(-c3cc(NC45CCC(O)(CC4)CC5)c(C(=O)NC4(C(F)F)CC4)cn3)ccc2c1` [Example 951, 6-(3-cyanopyrrolo[1,2-b]pyridazin-7-yl)-N-(1-(difluoromethyl)cyclopropyl)-4-((4-hydroxybicyclo[2.2.2]octan-1-yl)amino) nicotinamide] registered an IC50 at IRAK4 enzyme of 2 nM. Further, the 50% effective concentration (EC50) with TNFα turned out to be 159 nM.

For the molecule `COC(=O)NC[C@H]1C[C@H](Nc2cc(-c3ccc4cc(C#N)cnn34)ncc2C(=O)NCC(=O)N2CC(F)(F)C2)C1` [Example 952, methyl (((1r,3r)-3-((2-(3-cyanopyrrolo[1,2-b]pyridazin-7-yl)-5-((2-(3,3-difluoroazetidin-1-yl)-2-oxoethyl)carbamoyl)pyridin-4-yl)amino)cyclo-butyl)methyl)carbamate], the IC50 at IRAK4 enzyme is under 1 nM. The EC50 in the assay on TNFα stood at 62 nM.

In turn, `N#Cc1cnn2c(-c3cc(NC45CCC(O)(CC4)CC5)c(C(=O)NCC(=O)N4CC[C@@H](O)C4)cn3)ccc2c1` [Example 953, (R)-6-(3-cyanopyrrolo[1,2-b]pyridazin-7-yl)-4-((4-hydroxybicyclo[2.2.2]octan-1-yl)amino)-N-(2-(3-hydroxypyrrolidin-1-yl)-2-oxoethyl) nicotinamide] yielded a half-inhibitory concentration (IC50) at IRAK4 enzyme of under 1 nM. In addition, the half-maximal effective concentration (EC50) with TNFα turned out to be 240 nM.
